From the supplement of paper PMC10307832

Experiments:
Experiment in all cases: relative viability (nuclei count vs DMSO), 5 days (fraction); higher = more cells survive
NCI-H2087 = tested on: NCI-H2087
How it was run: (§1)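 One day after seeding in 1536-well plates, lung cancer cell lines were dosed by pin tool. Dosing was either single-drug or a fixed anchor-drug dose plus five library-drug doses (not always all listed) in √10 steps. After 5 days, nuclei were stained in one fix-and-stain step and counted on 4× images, and relative viability is the nuclei count of treated wells over that of vehicle wells, given as the median of duplicate plates.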

EMC-BAC-2 = tested on: EMC-BAC-2
How it was run: as §1

NCI-H727 = tested on: NCI-H727
How it was run: as §1

NCI-H2009 = tested on: NCI-H2009
How it was run: as §1

NCI-H596 = tested on: NCI-H596
How it was run: as §1

HARA = tested on: HARA
How it was run: as §1

NCI-H2126 = tested on: NCI-H2126
How it was run: as §1

HCC-44 = tested on: HCC-44
How it was run: as §1

NCI-H3122 = tested on: NCI-H3122
How it was run: as §1

NCI-H2023 = tested on: NCI-H2023
How it was run: as §1

LOU-NH91 = tested on: LOU-NH91
How it was run: as §1

NCI-H1666 = tested on: NCI-H1666
How it was run: as §1

LCLC-103H = tested on: LCLC-103H
How it was run: as §1

NCI-H441 = tested on: NCI-H441
How it was run: as §1

NCI-H838 = tested on: NCI-H838
How it was run: as §1

NCI-H2347 = tested on: NCI-H2347
How it was run: as §1

NCI-H23 = tested on: NCI-H23
How it was run: as §1

NCI-H650 = tested on: NCI-H650
How it was run: as §1

BEN = tested on: BEN
How it was run: as §1

NCI-H647 = tested on: NCI-H647
How it was run: as §1

NCI-H1993 = tested on: NCI-H1993
How it was run: as §1

201T = tested on: 201T
How it was run: as §1

CC(C)Oc1cc(Nc2nc(N[C@@H](C)c3ccc(F)cn3)ncc2Cl)n[nH]1 [AZ23] + CC(C)C[C@H](NC(=O)[C@H](Cc1ccccc1)NC(=O)c1cnccn1)B(O)O [Bortezomib] (partner 0.002 µM)
relative viability (NCI-H2087; first compound 0.01 µM): 1.3 | relative viability (NCI-H2087; first compound 0.03162 µM): 0.962 | relative viability (NCI-H2087; first compound 0.3162 µM): 0.778 | relative viability (EMC-BAC-2; first compound 0.01 µM): 1.2 | relative viability (EMC-BAC-2; first compound 0.03162 µM): 1.11 | relative viability (EMC-BAC-2; first compound 0.3162 µM): 1.16 | relative viability (NCI-H727; first compound 0.01 µM): 0.855 | relative viability (NCI-H727; first compound 0.03162 µM): 0.855 | relative viability (NCI-H727; first compound 0.3162 µM): 0.867 | relative viability (NCI-H2009; first compound 0.01 µM): 1.1 | relative viability (NCI-H2009; first compound 0.03162 µM): 1.06 | relative viability (NCI-H2009; first compound 0.3162 µM): 1.21 | relative viability (NCI-H596; first compound 0.01 µM): 1.17 | relative viability (NCI-H596; first compound 0.03162 µM): 1.06 | relative viability (NCI-H596; first compound 0.3162 µM): 1.1 | relative viability (HARA; first compound 0.01 µM): 1.04 | relative viability (HARA; first compound 0.03162 µM): 1.1 | relative viability (HARA; first compound 0.3162 µM): 1.27 | relative viability (NCI-H2126; first compound 0.01 µM): 1.18 | relative viability (NCI-H2126; first compound 0.03162 µM): 1.18 | relative viability (NCI-H2126; first compound 0.3162 µM): 1.09 | relative viability (HCC-44; first compound 0.01 µM): 0.88 | relative viability (HCC-44; first compound 0.03162 µM): 1.07 | relative viability (HCC-44; first compound 0.3162 µM): 0.912 | relative viability (NCI-H3122; first compound 0.01 µM): 1.04 | relative viability (NCI-H3122; first compound 0.03162 µM): 1.02 | relative viability (NCI-H3122; first compound 0.3162 µM): 1.12 | relative viability (NCI-H2023; first compound 0.03162 µM): 0.959 | relative viability (NCI-H2023; first compound 0.3162 µM): 1.22 | relative viability (LOU-NH91; first compound 0.01 µM): 0.535 | relative viability (LOU-NH91; first compound 0.03162 µM): 0.546 | relative viability (LOU-NH91; first compound 0.3162 µM): 0.519 | relative viability (NCI-H1666; first compound 0.01 µM): 0.725 | relative viability (NCI-H1666; first compound 0.03162 µM): 0.878 | relative viability (NCI-H1666; first compound 0.3162 µM): 0.889 | relative viability (LCLC-103H; first compound 0.01 µM): 1.01 | relative viability (LCLC-103H; first compound 0.03162 µM): 1.26 | relative viability (LCLC-103H; first compound 0.3162 µM): 1.14 | relative viability (NCI-H441; first compound 0.01 µM): 0.833 | relative viability (NCI-H441; first compound 0.03162 µM): 1.05 | relative viability (NCI-H441; first compound 0.3162 µM): 0.678 | relative viability (NCI-H838; first compound 0.01 µM): 0.772 | relative viability (NCI-H838; first compound 0.03162 µM): 0.702 | relative viability (NCI-H838; first compound 0.3162 µM): 0.757 | relative viability (NCI-H2347; first compound 0.01 µM): 0.927 | relative viability (NCI-H2347; first compound 0.03162 µM): 1.04 | relative viability (NCI-H2347; first compound 0.3162 µM): 0.979 | relative viability (NCI-H23; first compound 0.03162 µM): 1.12 | relative viability (NCI-H23; first compound 0.3162 µM): 1.04 | relative viability (NCI-H650; first compound 0.01 µM): 0.71 | relative viability (NCI-H650; first compound 0.03162 µM): 0.946 | relative viability (NCI-H650; first compound 0.3162 µM): 0.84 | relative viability (BEN; first compound 0.01 µM): 0.817 | relative viability (BEN; first compound 0.03162 µM): 1.08 | relative viability (BEN; first compound 0.3162 µM): 0.867 | relative viability (NCI-H647; first compound 0.01 µM): 1.41 | relative viability (NCI-H647; first compound 0.03162 µM): 1.16 | relative viability (NCI-H647; first compound 0.3162 µM): 1.12 | relative viability (NCI-H1993; first compound 0.01 µM): 0.911 | relative viability (NCI-H1993; first compound 0.3162 µM): 1.16 | relative viability (201T; first compound 0.01 µM): 1.18 | relative viability (201T; first compound 0.03162 µM): 1.07 | relative viability (201T; first compound 0.3162 µM): 1.13

CC(C)Oc1cc(Nc2nc(N[C@@H](C)c3ccc(F)cn3)ncc2Cl)n[nH]1 [AZ23] + C[C@@H](Oc1cc(-c2cnn(C3CCNCC3)c2)cnc1N)c1c(Cl)ccc(F)c1Cl [Crizotinib] (partner 1 µM)
relative viability (NCI-H2087; first compound 0.01 µM): 1.16 | relative viability (NCI-H2087; first compound 0.03162 µM): 1.11 | relative viability (NCI-H2087; first compound 0.3162 µM): 1.04 | relative viability (EMC-BAC-2; first compound 0.01 µM): 0.804 | relative viability (EMC-BAC-2; first compound 0.03162 µM): 0.817 | relative viability (EMC-BAC-2; first compound 0.3162 µM): 0.777 | relative viability (NCI-H727; first compound 0.01 µM): 1.01 | relative viability (NCI-H727; first compound 0.03162 µM): 1.14 | relative viability (NCI-H727; first compound 0.3162 µM): 0.648 | relative viability (NCI-H2009; first compound 0.01 µM): 1.05 | relative viability (NCI-H2009; first compound 0.03162 µM): 1.2 | relative viability (NCI-H2009; first compound 0.3162 µM): 1.06 | relative viability (NCI-H596; first compound 0.01 µM): 0.97 | relative viability (NCI-H596; first compound 0.03162 µM): 1.05 | relative viability (NCI-H596; first compound 0.3162 µM): 0.896 | relative viability (HARA; first compound 0.01 µM): 1.2 | relative viability (HARA; first compound 0.03162 µM): 0.904 | relative viability (HARA; first compound 0.3162 µM): 0.983 | relative viability (NCI-H2126; first compound 0.01 µM): 1.24 | relative viability (NCI-H2126; first compound 0.03162 µM): 1.11 | relative viability (NCI-H2126; first compound 0.3162 µM): 1.05 | relative viability (HCC-44; first compound 0.01 µM): 0.934 | relative viability (HCC-44; first compound 0.03162 µM): 0.952 | relative viability (HCC-44; first compound 0.3162 µM): 0.826 | relative viability (NCI-H3122; first compound 0.01 µM): 0.28 | relative viability (NCI-H3122; first compound 0.03162 µM): 0.262 | relative viability (NCI-H3122; first compound 0.3162 µM): 0.305 | relative viability (NCI-H2023; first compound 0.03162 µM): 0.825 | relative viability (NCI-H2023; first compound 0.3162 µM): 0.616 | relative viability (LOU-NH91; first compound 0.01 µM): 0.719 | relative viability (LOU-NH91; first compound 0.03162 µM): 0.727 | relative viability (LOU-NH91; first compound 0.3162 µM): 0.771 | relative viability (NCI-H1666; first compound 0.01 µM): 1.03 | relative viability (NCI-H1666; first compound 0.03162 µM): 0.978 | relative viability (NCI-H1666; first compound 0.3162 µM): 1.02 | relative viability (LCLC-103H; first compound 0.01 µM): 1.13 | relative viability (LCLC-103H; first compound 0.03162 µM): 1.13 | relative viability (LCLC-103H; first compound 0.3162 µM): 1.13 | relative viability (NCI-H441; first compound 0.01 µM): 1.15 | relative viability (NCI-H441; first compound 0.03162 µM): 0.914 | relative viability (NCI-H441; first compound 0.3162 µM): 0.774 | relative viability (NCI-H838; first compound 0.01 µM): 0.702 | relative viability (NCI-H838; first compound 0.03162 µM): 0.889 | relative viability (NCI-H838; first compound 0.3162 µM): 0.803 | relative viability (NCI-H2347; first compound 0.01 µM): 0.736 | relative viability (NCI-H2347; first compound 0.03162 µM): 0.861 | relative viability (NCI-H2347; first compound 0.3162 µM): 0.654 | relative viability (NCI-H23; first compound 0.03162 µM): 0.617 | relative viability (NCI-H23; first compound 0.3162 µM): 0.539 | relative viability (NCI-H650; first compound 0.01 µM): 0.866 | relative viability (NCI-H650; first compound 0.03162 µM): 0.813 | relative viability (NCI-H650; first compound 0.3162 µM): 0.847 | relative viability (BEN; first compound 0.01 µM): 0.855 | relative viability (BEN; first compound 0.03162 µM): 1.09 | relative viability (BEN; first compound 0.3162 µM): 0.968 | relative viability (NCI-H647; first compound 0.01 µM): 1.71 | relative viability (NCI-H647; first compound 0.03162 µM): 1.37 | relative viability (NCI-H647; first compound 0.3162 µM): 1.3 | relative viability (NCI-H1993; first compound 0.01 µM): 0.857 | relative viability (NCI-H1993; first compound 0.3162 µM): 0.804 | relative viability (201T; first compound 0.01 µM): 1.06 | relative viability (201T; first compound 0.03162 µM): 1.05 | relative viability (201T; first compound 0.3162 µM): 1.01
